From patent US8158628B2, “Sulfonylated 1,2,3,4-tetrahydropyrrolo[1,2-a]pyrazine compounds and their use as pharmaceuticals” (Gruenenthal GmbH, priority 2009, dated 2012)

Molecular target: T1, B1R of the rat (Rattus norvegicus, UniProt P97583)
T1 construct: expressed in transfected cells; host or cells: CHO K1 cells (Chinese hamster ovary), stably transfected
T1 sequence (P97583 1-337): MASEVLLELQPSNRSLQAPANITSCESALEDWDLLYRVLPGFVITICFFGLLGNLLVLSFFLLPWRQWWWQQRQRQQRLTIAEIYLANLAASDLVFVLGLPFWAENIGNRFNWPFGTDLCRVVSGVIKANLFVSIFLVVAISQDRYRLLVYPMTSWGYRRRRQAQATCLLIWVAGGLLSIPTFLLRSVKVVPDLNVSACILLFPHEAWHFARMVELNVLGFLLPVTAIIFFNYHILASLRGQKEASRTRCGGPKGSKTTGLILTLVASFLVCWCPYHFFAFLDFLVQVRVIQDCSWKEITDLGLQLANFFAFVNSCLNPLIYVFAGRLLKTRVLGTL
Assay: FLIPR Ca2+ functional assay, B1R antagonism, rat B1R in CHO K1 cells
Format: cell-based
Conditions: test substance 10 μM; rB1R CHO K1 cells; agonist Des-Arg9 bradykinin at EC80; % of maximum achievable inhibition
Protocol: The agonistic or antagonistic action of substances on the bradykinin 1 receptor (B1R) of the human and rat species can be quantified with ectopically expressing cell lines (CHO K1 cells) and with the aid of a Ca^2+-sensitive dye (Fluo-4) using a fluorescent imaging plate reader (FLIPR). The value in % activation is based on the Ca^2+ signal after addition of Lys-Des-Arg^9 bradykinin (0.5 nM) or Des-Arg^9 bradykinin (100 nM). Antagonists lead to a suppression of the Ca^2+ influx following administration of the agonist. The % inhibition in comparison with the maximum achievable inhibition is indicated.
1. Functional Investigation on the Bradykinin 1 Receptor (B1R) The agonistic or antagonistic action of substances can be determined on the bradykinin 1 receptor (B1R) of the human and rat species with the following assay. According to this assay, the Ca^2+ inflow through the channel is quantified with the aid of a Ca^2+-sensitive dye (Fluo-4 type, Molecular Probes Europe BV, Leiden, Netherlands) in a fluorescent imaging plate reader (FLIPR, Molecular Devices, Sunnyvale, USA). 2. Method: Chinese hamster ovary cells (CHO K1 cells) which are stably transfected with the human B1R gene (hB1R cells) or the B1R gene of the rat (rB1R cells) are used. For functional investigations these cells are plated-out onto black 96-well plates with a clear base (BD Biosciences, Heidelberg, Germany or Greiner, Frickenhausen, Germany) in a density of 20,000-35,000 cells/well. Overnight the cells are incubated at 37° C. and 5% CO2 in culture medium (hB1R cells: Ham's Nutrient Mixture F12, Gibco Invitrogen GmbH, Karlsruhe, Germany or DMEM, Sigma-Aldrich, Taufkirchen, Germany; rB1R cells: D-MEM/F12, Gibco Invitrogen, Karlsruhe, Germany) with 10 vol. % FBS (foetal bovine serum, Gibco Invitrogen GmbH, Karlsruhe, Germany or PAN Biotech GmbH, Aidenbach, Germany).
On the following day the cells are loaded with 2.13 μM Fluo-4 (Molecular Probes Europe BV, Leiden, Netherlands) in HBSS buffer (Hank's buffered saline solution, Gibco Invitrogen GmbH, Karlsruhe, Germany) with 2.5 mM probenecid (Sigma-Aldrich, Taufkirchen, Germany) and 10 mM HEPES (Sigma-Aldrich, Taufkirchen, Germany) for 60 min at 37° C. The plates are subsequently washed twice with HBSS buffer, and HBSS buffer which additionally contains 0.1% BSA (bovine serum albumin; Sigma-Aldrich, Taufkirchen, Germany), 5.6 mM glucose and 0.05% gelatine (Merck KGaA, Darmstadt, Germany) is added. After a further incubation of 20 minutes at RT, the plates are inserted into the FLIPR for Ca^2+ measurement. Alternatively they are washed with buffer A (15 mM HEPES, 80 mM NaCl, 5 mM KCl, 1.2 mM CaCl2, 0.7 mM MgSO4, 2 g/l glucose, 2.5 mM probenecid) and loaded with buffer A with added 2.5 μM Fluo-4 and 0.025% Pluronic F127 (Sigma-Aldrich, Taufkirchen, Germany). The cells are then washed twice with buffer A and incubated for 30 minutes with buffer A, which additionally contains 0.05% BSA and 0.05% gelatine, at RT and then used for Ca^2+ measurement in the FLIPR. The Ca^2+-dependent fluorescence is measured here before and after addition of substances (λex=488 nm, λem=540 nm). The quantification is performed by measuring the highest fluorescence intensity (FC, fluorescence counts) over time.
The FLIPR protocol comprises two additions of substance. Test substances (10 μM) are first pipetted onto the cells and the Ca^2+ inflow is compared with the control (hB1R: Lys-Des-Arg^9 bradykinin >=50 nM; rB1R: Des-Arg^9 bradykinin 10 μM). The value in % activation based on the Ca^2+ signal after addition of Lys-Des-Arg^9 bradykinin (>=50 nM) or Des-Arg^9 bradykinin (10 μM) is obtained therefrom. After incubation for 10-20 minutes, Lys-Des-Arg^9 bradykinin (hB1R) or Des-Arg^9 bradykinin (rB1R) is applied in the EC80 concentration and the inflow of Ca^2+ is likewise determined.
Antagonists lead to a suppression of the Ca^2+ inflow. The % inhibition in comparison with the maximum achievable inhibition is calculated. […]

SMILES	inhibition at 10 µM [%]
CN1CCN(C2CCN(C(=O)CC3c4cccn4CCN3S(=O)(=O)c3ccccc3)CC2)CC1 (stereo not shown) [Example 177, 2-[2-(Benzenesulfonyl)-1,2,3,4-tetrahydro-pyrrolo[1,2-a]pyrazin-1-yl]-1-[4-(4-methyl-piperazin-1-yl)-piperidin-1-yl]-ethanone]	-1.9
Cc1ccc2[nH]c(C3CCN(C(=O)CC4c5cccn5CCN4S(=O)(=O)c4ccccc4)CC3)nc2c1 (stereo not shown) [Example 180, 2-[2-(Benzenesulfonyl)-1,2,3,4-tetrahydro-pyrrolo[1,2-a]pyrazin-1-yl]-1-[4-(5-methyl-1H-benzoimidazol-2-yl)-piperidin-1-yl]-ethanone]	32.9
N#Cc1cccnc1N1CCCN(C(=O)CC2c3cccn3CCN2S(=O)(=O)c2ccccc2)CC1 (stereo not shown) [Example 181, 2-[4-[2-[2-(Benzenesulfonyl)-1,2,3,4-tetrahydro-pyrrolo[1,2-a]pyrazin-1-yl]-acetyl]-[1,4]diazepan-1-yl]-pyridine-3-carbonitrile]	33.9
O=C(CC1c2cccn2CCN1S(=O)(=O)c1ccccc1)NCC1CCN(Cc2ccccc2)C1 (stereo not shown) [Example 182, 2-[2-(Benzenesulfonyl)-1,2,3,4-tetrahydro-pyrrolo[1,2-a]pyrazin-1-yl]-N-[(1-benzyl-pyrrolidin-3-yl)-methyl]-acetamide]	37.5
O=C(CC1c2cccn2CCN1S(=O)(=O)c1ccccc1)N1CCN(c2ccc(C(F)(F)F)cn2)CC1 (stereo not shown) [Example 183, 2-[2-(Benzenesulfonyl)-1,2,3,4-tetrahydro-pyrrolo[1,2-a]pyrazin-1-yl]-1-[4-[5-(trifluoromethyl)-pyridin-2-yl]-piperazin-1-yl]-ethanone]	56.1
CN1CCN(CC(NC(=O)CC2c3cccn3CCN2S(=O)(=O)c2cccc(C(F)(F)F)c2)c2ccccc2)CC1 (stereo not shown) [Example 185, N-[2-(4-Methyl-piperazin-1-yl)-1-phenyl-ethyl]-2-[2-[[3-(trifluoromethyl)phenyl]sulfonyl]-1,2,3,4-tetrahydro-pyrrolo[1,2-a]pyrazin-1-yl]-acetamide]	76.4
O=C(CC1c2cccn2CCN1S(=O)(=O)c1cccc(C(F)(F)F)c1)N1CCN(c2ccccc2F)CC1 (stereo not shown) [Example 186, 1-[4-(2-Fluorophenyl)-piperazin-1-yl]-2-[2-[[3-(trifluoromethyl)phenyl]sulfonyl]-1,2,3,4-tetrahydro-pyrrolo[1,2-a]pyrazin-1-yl]-ethanone]	24.4
O=C(CC1c2cccn2CCN1S(=O)(=O)c1cccc(C(F)(F)F)c1)N1CCC(N2CCCCC2)CC1 (stereo not shown) [Example 188, 1-(4-Piperidin-1-yl-piperidin-1-yl)-2-[2-[[3-(trifluoromethyl)phenyl]sulfonyl]-1,2,3,4-tetrahydro-pyrrolo[1,2-a]pyrazin-1-yl]-ethanone]	-2.25
Cc1ccc2[nH]c(C3CCN(C(=O)CC4c5cccn5CCN4S(=O)(=O)c4cccc(C(F)(F)F)c4)CC3)nc2c1 (stereo not shown) [Example 189, 1-[4-(5-Methyl-1H-benzoimidazol-2-yl)-piperidin-1-yl]-2-[2-[[3-(trifluoromethyl)phenyl]sulfonyl]-1,2,3,4-tetrahydro-pyrrolo[1,2-a]pyrazin-1-yl]-ethanone]	-1.61
O=C(CC1c2cccn2CCN1S(=O)(=O)c1cccc(C(F)(F)F)c1)N1CCN(c2ccccn2)CC1 (stereo not shown) [Example 190, 1-(4-Pyridin-2-yl-piperazin-1-yl)-2-[2-[[3-(trifluoromethyl)phenyl]sulfonyl]-1,2,3,4-tetrahydro-pyrrolo[1,2-a]pyrazin-1-yl]-ethanone]	20.4
Cc1cc(S(=O)(=O)N2CCn3cccc3C2CC(=O)N(C)C(CN2CCN(C)CC2)c2ccccc2)c(C)cc1Cl (stereo not shown) [Example 230, 2-[2-[(4-Chloro-2,5-dimethyl-phenyl)sulfonyl]-1,2,3,4-tetrahydro-pyrrolo[1,2-a]pyrazin-1-yl]-N-methyl-N-[2-(4-methyl-piperazin-1-yl)-1-phenyl-ethyl]-acetamide]	5.28
Cc1ccc(CN2CCN(C(=O)CC3c4cccn4CCN3S(=O)(=O)c3ccccc3)CC2)cc1 (stereo not shown) [Example 232, 2-[2-(Benzenesulfonyl)-1,2,3,4-tetrahydro-pyrrolo[1,2-a]pyrazin-1-yl]-1-[4-(p-tolyl-methyl)-piperazin-1-yl]-ethanone]	2.94
COc1ccc(CN2CCN(C(=O)CC3c4cccn4CCN3S(=O)(=O)c3ccccc3)CC2)cc1 (stereo not shown) [Example 233, 2-[2-(Benzenesulfonyl)-1,2,3,4-tetrahydro-pyrrolo[1,2-a]pyrazin-1-yl]-1-[4-[(4-methoxyphenyl)-methyl]-piperazin-1-yl]-ethanone]	20.6

Other lines, results leading:

inhibition at 10 µM [%]	SMILES
26.7	O=C(CC1c2cccn2CCN1S(=O)(=O)c1ccccc1)N1CCC(N2CCOCC2)CC1 (stereo not shown) [Example 176, 2-[2-(Benzenesulfonyl)-1,2,3,4-tetrahydro-pyrrolo[1,2-a]pyrazin-1-yl]-1-(4-morpholin-4-yl-piperidin-1-yl)-ethanone]
17.2	Cc1ccc(C)n1CCN1CCN(C(=O)CC2c3cccn3CCN2S(=O)(=O)c2ccccc2)CC1 (stereo not shown) [Example 178, 2-[2-(Benzenesulfonyl)-1,2,3,4-tetrahydro-pyrrolo[1,2-a]pyrazin-1-yl]-1-[4-[2-(2,5-dimethyl-1H-pyrrol-1-yl)-ethyl]-piperazin-1-yl]-ethanone]
20.8	O=C(CC1c2cccn2CCN1S(=O)(=O)c1ccccc1)N1CCN(c2ncccn2)CC1 (stereo not shown) [Example 179, 2-[2-(Benzenesulfonyl)-1,2,3,4-tetrahydro-pyrrolo[1,2-a]pyrazin-1-yl]-1-(4-pyrimidin-2-yl-piperazin-1-yl)-ethanone]
19.4	CC1CCCC(C)N1CCCNC(=O)CC1c2cccn2CCN1S(=O)(=O)c1cccc(C(F)(F)F)c1 (stereo not shown) [Example 184, N-[3-(2,6-Dimethyl-piperidin-1-yl)-propyl]-2-[2-[[3-(trifluoromethyl)phenyl]sulfonyl]-1,2,3,4-tetrahydro-pyrrolo[1,2-a]pyrazin-1-yl]-acetamide]
18.3	CCN1CCN(C(=O)CC2c3cccn3CCN2S(=O)(=O)c2cccc(C(F)(F)F)c2)CC1 (stereo not shown) [Example 187, 1-(4-Ethyl-piperazin-1-yl)-2-[2-[[3-(trifluoromethyl)phenyl]sulfonyl]-1,2,3,4-tetrahydro-pyrrolo[1,2-a]pyrazin-1-yl]-ethanone]
-0.67	O=C(CC1c2cccn2CCN1S(=O)(=O)c1ccccc1)N1CCN(c2ccc(Cl)c(Cl)c2)CC1 (stereo not shown) [Example 231, 2-[2-(Benzenesulfonyl)-1,2,3,4-tetrahydro-pyrrolo[1,2-a]pyrazin-1-yl]-1-[4-(3,4-dichlorophenyl)-piperazin-1-yl]-ethanone]
